Tested on: 156681-154-R-J1-PDC complex spheroid viability
Test: Anticancer human tumor 156681-154-R-J1-PDC patient-derived melanoma cell line growth inhibition [CLK]
Conditions: for IC50: curve of first compound; for viability, T/C: stronger effect = lower value
Procedure, shortened: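 Patient-derived tumor cells grown as complex spheroids with HUVEC endothelial cells and mesenchymal stem cells, treated with drug combinations. Concentrations descend in half-log steps from near clinical Cmax, or from 10 microM if Cmax unknown.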
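Further: spheroids exposed to the agents for seven days.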
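Wherever viability, T/C is given: 100% = DMSO vehicle control viability.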

Question: How did the IC50 (second compound 0.0316 µM) turn out when C=CC(=O)Nc1cc(Nc2nccc(-c3cn(C)c4ccccc34)n2)c(OC)cc1N(C)CCN(C)C + CNC(=O)c1ccc(Nc2nc(OC3CCCC3)c3c(-c4ccc5nc(C)oc5c4)c[nH]c3n2)c(OC)c1 was run?
Answer: Its IC50 is over 300 nM.

Question: And the IC50 (second compound 0.1 µM)?
Answer: The IC50 was over 300 nM.

Question: What about the IC50 (second compound 0.316 µM) of the same compound?
Answer: Its IC50 is over 300 nM.

Question: And the IC50 (second compound 1 µM)?
Answer: Its IC50 is 242 nM.

Question: What about the IC50 (second compound 3.16 µM) of the same compound?
Answer: Its IC50 is 2.45 nM.

Question: What about the IC50 (second compound 10 µM) of the same compound?
Answer: Its IC50 is under 0.949 nM.

Question: What about the viability, T/C (second compound 0.0316 µM, first compound 0.000949 µM) of the same compound?
Answer: Its viability, T/C is 82.8%.

Question: And the viability, T/C (second compound 0.0316 µM, first compound 0.003 µM)?
Answer: Its viability, T/C is 97.7%.

Question: What about the viability, T/C (second compound 0.0316 µM, first compound 0.00949 µM) of the same compound?
Answer: Its viability, T/C is 90.6%.

Question: And the viability, T/C (second compound 0.0316 µM, first compound 0.03 µM)?
Answer: The viability, T/C was 111%.

Question: What about the viability, T/C (second compound 0.0316 µM, first compound 0.0949 µM) of the same compound?
Answer: Its viability, T/C is 109%.

Question: And the viability, T/C (second compound 0.0316 µM, first compound 0.3 µM)?
Answer: Its viability, T/C is 90%.

Question: And the viability, T/C (second compound 0.1 µM, first compound 0.000949 µM)?
Answer: Its viability, T/C is 67.7%.

Question: What about the viability, T/C (second compound 0.1 µM, first compound 0.003 µM) of the same compound?
Answer: The viability, T/C was 64.1%.

Question: And the viability, T/C (second compound 0.1 µM, first compound 0.00949 µM)?
Answer: Its viability, T/C is 61.8%.

Question: And the viability, T/C (second compound 0.1 µM, first compound 0.03 µM)?
Answer: Its viability, T/C is 68.5%.

Question: And the viability, T/C (second compound 0.1 µM, first compound 0.0949 µM)?
Answer: Its viability, T/C is 64.3%.

Question: What about the viability, T/C (second compound 0.1 µM, first compound 0.3 µM) of the same compound?
Answer: The viability, T/C was 64.8%.

Question: What about the viability, T/C (second compound 0.316 µM, first compound 0.000949 µM) of the same compound?
Answer: Its viability, T/C is 71.5%.

Question: What about the viability, T/C (second compound 0.316 µM, first compound 0.003 µM) of the same compound?
Answer: The viability, T/C was 64.8%.

Question: What about the viability, T/C (second compound 0.316 µM, first compound 0.00949 µM) of the same compound?
Answer: Its viability, T/C is 83.1%.

Question: What about the viability, T/C (second compound 0.316 µM, first compound 0.03 µM) of the same compound?
Answer: The viability, T/C was 62.7%.

Question: What about the viability, T/C (second compound 0.316 µM, first compound 0.0949 µM) of the same compound?
Answer: Its viability, T/C is 63.2%.

Question: What about the viability, T/C (second compound 0.316 µM, first compound 0.3 µM) of the same compound?
Answer: Its viability, T/C is 64%.

Question: What about the viability, T/C (second compound 1 µM, first compound 0.000949 µM) of the same compound?
Answer: The viability, T/C was 62.1%.

Question: What about the viability, T/C (second compound 1 µM, first compound 0.003 µM) of the same compound?
Answer: Its viability, T/C is 56%.

Question: What about the viability, T/C (second compound 1 µM, first compound 0.00949 µM) of the same compound?
Answer: The viability, T/C was 53.5%.

Question: What about the viability, T/C (second compound 1 µM, first compound 0.03 µM) of the same compound?
Answer: The viability, T/C was 48.2%.

Question: What about the viability, T/C (second compound 1 µM, first compound 0.0949 µM) of the same compound?
Answer: The viability, T/C was 64.8%.

Question: What about the viability, T/C (second compound 1 µM, first compound 0.3 µM) of the same compound?
Answer: Its viability, T/C is 43.6%.

Question: What about the viability, T/C (second compound 3.16 µM, first compound 0.000949 µM) of the same compound?
Answer: Its viability, T/C is 50.1%.

Question: And the viability, T/C (second compound 3.16 µM, first compound 0.003 µM)?
Answer: Its viability, T/C is 57.6%.

Question: And the viability, T/C (second compound 3.16 µM, first compound 0.00949 µM)?
Answer: The viability, T/C was 35.2%.

Question: What about the viability, T/C (second compound 3.16 µM, first compound 0.03 µM) of the same compound?
Answer: Its viability, T/C is 47.2%.

Question: And the viability, T/C (second compound 3.16 µM, first compound 0.0949 µM)?
Answer: The viability, T/C was 37.9%.

Question: And the viability, T/C (second compound 3.16 µM, first compound 0.3 µM)?
Answer: Its viability, T/C is 29.1%.

Question: And the viability, T/C (second compound 10 µM, first compound 0.000949 µM)?
Answer: The viability, T/C was 44.9%.

Question: And the viability, T/C (second compound 10 µM, first compound 0.003 µM)?
Answer: The viability, T/C was 41.8%.

Question: What about the viability, T/C (second compound 10 µM, first compound 0.00949 µM) of the same compound?
Answer: Its viability, T/C is 31.9%.

Question: What about the viability, T/C (second compound 10 µM, first compound 0.03 µM) of the same compound?
Answer: The viability, T/C was 43.1%.

Question: What about the viability, T/C (second compound 10 µM, first compound 0.0949 µM) of the same compound?
Answer: The viability, T/C was 45%.

Question: And the viability, T/C (second compound 10 µM, first compound 0.3 µM)?
Answer: The viability, T/C was 24.2%.

Question: CC1(C)CCC(CN2CCN(c3ccc(C(=O)NS(=O)(=O)c4ccc(NCC5CCOCC5)c([N+](=O)[O-])c4)c(Oc4cnc5[nH]ccc5c4)c3)CC2)=C(c2ccc(Cl)cc2)C1 + CNC(=O)c1ccc(Nc2nc(OC3CCCC3)c3c(-c4ccc5nc(C)oc5c4)c[nH]c3n2)c(OC)c1 was tested. Which IC50 (second compound 0.0316 µM) did it give?
Answer: Its IC50 is 5040 nM.

Question: What about the IC50 (second compound 0.1 µM) of the same compound?
Answer: Its IC50 is 4190 nM.

Question: What about the IC50 (second compound 0.316 µM) of the same compound?
Answer: Its IC50 is 3250 nM.

Question: What about the IC50 (second compound 1 µM) of the same compound?
Answer: Its IC50 is 1860 nM.

Question: What about the IC50 (second compound 3.16 µM) of the same compound?
Answer: The IC50 was under 31.6 nM.

Question: And the IC50 (second compound 10 µM)?
Answer: The IC50 was under 31.6 nM.

Question: What about the viability, T/C (second compound 0.0316 µM, first compound 0.0316 µM) of the same compound?
Answer: The viability, T/C was 92.9%.

Question: What about the viability, T/C (second compound 0.0316 µM, first compound 0.1 µM) of the same compound?
Answer: The viability, T/C was 101%.

Question: What about the viability, T/C (second compound 0.0316 µM, first compound 0.316 µM) of the same compound?
Answer: Its viability, T/C is 103%.

Question: What about the viability, T/C (second compound 0.0316 µM, first compound 1 µM) of the same compound?
Answer: The viability, T/C was 96.8%.

Question: And the viability, T/C (second compound 0.0316 µM, first compound 3.16 µM)?
Answer: The viability, T/C was 83%.

Question: What about the viability, T/C (second compound 0.0316 µM, first compound 10 µM) of the same compound?
Answer: Its viability, T/C is 1.52%.

Question: What about the viability, T/C (second compound 0.1 µM, first compound 0.0316 µM) of the same compound?
Answer: Its viability, T/C is 66.6%.

Question: And the viability, T/C (second compound 0.1 µM, first compound 0.1 µM)?
Answer: Its viability, T/C is 80%.

Question: What about the viability, T/C (second compound 0.1 µM, first compound 0.316 µM) of the same compound?
Answer: The viability, T/C was 82%.

Question: What about the viability, T/C (second compound 0.1 µM, first compound 1 µM) of the same compound?
Answer: The viability, T/C was 70.4%.

Question: And the viability, T/C (second compound 0.1 µM, first compound 3.16 µM)?
Answer: The viability, T/C was 65.8%.

Question: And the viability, T/C (second compound 0.1 µM, first compound 10 µM)?
Answer: Its viability, T/C is 0.92%.

Question: What about the viability, T/C (second compound 0.316 µM, first compound 0.0316 µM) of the same compound?
Answer: Its viability, T/C is 67.1%.

Question: What about the viability, T/C (second compound 0.316 µM, first compound 0.1 µM) of the same compound?
Answer: The viability, T/C was 72.9%.

Question: And the viability, T/C (second compound 0.316 µM, first compound 0.316 µM)?
Answer: Its viability, T/C is 65.2%.

Question: What about the viability, T/C (second compound 0.316 µM, first compound 1 µM) of the same compound?
Answer: Its viability, T/C is 74.1%.

Question: And the viability, T/C (second compound 0.316 µM, first compound 3.16 µM)?
Answer: The viability, T/C was 51.2%.

Question: What about the viability, T/C (second compound 0.316 µM, first compound 10 µM) of the same compound?
Answer: The viability, T/C was 0.88%.

Question: And the viability, T/C (second compound 1 µM, first compound 0.0316 µM)?
Answer: The viability, T/C was 59.7%.

Question: And the viability, T/C (second compound 1 µM, first compound 0.1 µM)?
Answer: The viability, T/C was 62.7%.

Question: What about the viability, T/C (second compound 1 µM, first compound 0.316 µM) of the same compound?
Answer: Its viability, T/C is 46.6%.

Question: And the viability, T/C (second compound 1 µM, first compound 1 µM)?
Answer: Its viability, T/C is 57%.

Question: What about the viability, T/C (second compound 1 µM, first compound 3.16 µM) of the same compound?
Answer: Its viability, T/C is 44.8%.

Question: And the viability, T/C (second compound 1 µM, first compound 10 µM)?
Answer: The viability, T/C was 2.29%.

Question: And the viability, T/C (second compound 3.16 µM, first compound 0.0316 µM)?
Answer: Its viability, T/C is 42.6%.

Question: And the viability, T/C (second compound 3.16 µM, first compound 0.1 µM)?
Answer: Its viability, T/C is 37.8%.

Question: What about the viability, T/C (second compound 3.16 µM, first compound 0.316 µM) of the same compound?
Answer: Its viability, T/C is 36.2%.

Question: What about the viability, T/C (second compound 3.16 µM, first compound 1 µM) of the same compound?
Answer: The viability, T/C was 50.4%.

Question: What about the viability, T/C (second compound 3.16 µM, first compound 3.16 µM) of the same compound?
Answer: The viability, T/C was 32.1%.

Question: What about the viability, T/C (second compound 3.16 µM, first compound 10 µM) of the same compound?
Answer: Its viability, T/C is 1.28%.

Question: What about the viability, T/C (second compound 10 µM, first compound 0.0316 µM) of the same compound?
Answer: The viability, T/C was 46.6%.

Question: What about the viability, T/C (second compound 10 µM, first compound 0.1 µM) of the same compound?
Answer: Its viability, T/C is 34.7%.

Question: And the viability, T/C (second compound 10 µM, first compound 0.316 µM)?
Answer: The viability, T/C was 39.9%.

Question: And the viability, T/C (second compound 10 µM, first compound 1 µM)?
Answer: Its viability, T/C is 41.4%.

Question: What about the viability, T/C (second compound 10 µM, first compound 3.16 µM) of the same compound?
Answer: Its viability, T/C is 30.2%.

Question: And the viability, T/C (second compound 10 µM, first compound 10 µM)?
Answer: The viability, T/C was 0.58%.
